Measured values published in PMC4428790, “In Silico and In Vitro Analysis of Bacoside A Aglycones and Its Derivatives as the Constituents Responsible for the Cognitive Effects of Bacopa monnieri” (PLoS ONE, 2015).

How the values were obtained:
[1] = target: T1, D2S receptor (recombinant human membrane, CHO cells) (Homo sapiens, UniProt P14416); assay: radioligand receptor binding assay, [3H]-methylspiperone displacement; conditions: mean ± S.D.; 0.2 nM [3H]-methylspiperone; assayed up to 100 or 30 μM; read-out: IC50 D2
T1 construct: purchased Perkin Elmer Lot no; 1820984; host or cells: CHO cells
Description: (§1) Recombinant human membrane preparations for M1 (expressed in CHO cells; Lot no. 1706299), 5-HT1A (HEK293 cells; no. 1812363), 5-HT2A (CHO cells; no. 1813092), D1 (L cells; no. 1840059), and D2S (CHO cells; no. 1820984) receptors and MicroScint-O scintillation cocktail were procured from Perkin Elmer (Waltham, MA, USA). [^3H] N-methylscopolamine (NMS), [^3H] 8-OH-DPAT, [^3H] ketanserin, [^3H] SCH 23390 and [^3H] methylspiperone were purchased from American Radiolabeled Chemicals (St. Louis, MO, USA). […] (DTNB) and donepezil hydrochloride were obtained from Sigma-Aldrich (St. Louis, MO, USA). Bacoside A, bacoside A3, bacopaside II, bacopaside X and bacopasaponin C were purchased from Chromadex Inc. (Irvine, CA, USA). Jujubogenin and ebelin lactone were purchased from Shanghai IS Chemical Technology Ltd. (Jinshan, Shanghai, China). Unless stated otherwise, all other reagents of analytical grade were obtained through standard commercial sources.
(§2) The assay was performed according to the methods published previously. […] Pseudojujubogenin and bacogenin A1 were not available for purchase at the time when the work was carried out. All compounds were dissolved in dimethylsulfoxide (DMSO) and the solvent was kept below 1% (v/v) in the final reaction mixture. Briefly, in each well, 100 μl of the respective membrane preparations (μg/well), 50 μl of the respective [^3H]-ligand and 50 μl of the test compounds were added and the total assay reaction volume was made up to 200 μl by adding assay buffer. […] The reaction mixture was incubated for 60 or 120 min at room temperature or 37°C for the respective membranes. The reaction was stopped by rapid filtration onto GF/C filter plates (presoaked in 0.5% polyethyleneimine) using FilterMate (Perkin Elmer) cell harvester and washed with wash buffer (200 μl for 5 times) to remove unbound ligands. The filter plates were dried at 60°C for 15 minutes before the application of Bottom Seal and addition of 50 μl MicroScint-O scintillation cocktail. The top of the plate was then sealed with TopSeal A. Radioactivity (CPM) was counted using TopCount NXT microplate scintillation counter (Perkin-Elmer). The data were analyzed by non-linear regression using Prism Version 5.0 (GraphPad Inc., San Diego CA, USA). The percentage of specific binding of radioligand in the presence of test compounds was calculated using the standard data reduction algorithm: ([B-NSB] / [TB-NSB]) × 100) where B is the binding in the presence of test compounds, NSB is the non-specific binding in the presence of excess reference ligand and TB is the total binding. K i values were calculated from the IC50 values using the Cheng-Prusoff equation [26].

[2] = target: T2, 5-HT2A receptor (recombinant human membrane, CHO cells) (Homo sapiens, UniProt P28223); assay: radioligand receptor binding assay, [3H]-ketanserin displacement; conditions: for IC50: mean ± S.D., 1 nM [3H]-ketanserin, assayed up to 100 or 30 μM
T2 construct: purchased Perkin Elmer Lot no; 1813092; host or cells: CHO cells
Description: as §1, §2

[3] = target: T3, M1 receptor (recombinant human membrane, CHO cells) (Homo sapiens, UniProt P11229); assay: radioligand receptor binding assay, [3H]-NMS displacement; conditions: for IC50: mean ± S.D., 0.1 nM [3H]-NMS, assayed up to 100 or 30 μM
T3 construct: purchased Perkin Elmer Lot no; 1706299; host or cells: CHO cells
T3 sequence (P11229 1-460): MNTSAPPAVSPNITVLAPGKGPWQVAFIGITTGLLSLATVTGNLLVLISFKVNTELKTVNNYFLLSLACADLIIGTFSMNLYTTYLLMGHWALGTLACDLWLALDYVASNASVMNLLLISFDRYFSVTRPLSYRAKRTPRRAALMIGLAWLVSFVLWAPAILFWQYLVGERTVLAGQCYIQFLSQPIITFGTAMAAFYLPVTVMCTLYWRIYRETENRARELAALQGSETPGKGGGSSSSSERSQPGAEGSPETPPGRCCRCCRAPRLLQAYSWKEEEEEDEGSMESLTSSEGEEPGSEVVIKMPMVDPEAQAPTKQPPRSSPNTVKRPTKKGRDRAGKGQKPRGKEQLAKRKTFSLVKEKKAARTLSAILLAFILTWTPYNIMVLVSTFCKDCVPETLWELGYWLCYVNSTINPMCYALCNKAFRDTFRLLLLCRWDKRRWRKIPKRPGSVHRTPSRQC
Description: as §1, §2

[4] = target: T4, D1 receptor (recombinant human membrane, L cells) (Homo sapiens, UniProt P21728); assay: radioligand receptor binding assay, [3H]-SCH 23390 displacement; conditions: for IC50: mean ± S.D., 0.2 nM [3H]-SCH 23390, assayed up to 100 or 30 μM
T4 construct: purchased Perkin Elmer Lot no; 1840059; host or cells: L cells
Description: as §1, §2

[5] = target: T5, 5-HT1A receptor (recombinant human membrane, HEK293 cells) (Homo sapiens, UniProt P08908); assay: radioligand receptor binding assay, [3H]-8-OH-DPAT displacement; conditions: mean ± S.D.; 2 nM [3H]-8-OH-DPAT; assayed up to 100 or 30 μM
T5 construct: purchased Perkin Elmer Lot no; 1812363; host or cells: HEK293 cells
T5 sequence (P08908 1-422): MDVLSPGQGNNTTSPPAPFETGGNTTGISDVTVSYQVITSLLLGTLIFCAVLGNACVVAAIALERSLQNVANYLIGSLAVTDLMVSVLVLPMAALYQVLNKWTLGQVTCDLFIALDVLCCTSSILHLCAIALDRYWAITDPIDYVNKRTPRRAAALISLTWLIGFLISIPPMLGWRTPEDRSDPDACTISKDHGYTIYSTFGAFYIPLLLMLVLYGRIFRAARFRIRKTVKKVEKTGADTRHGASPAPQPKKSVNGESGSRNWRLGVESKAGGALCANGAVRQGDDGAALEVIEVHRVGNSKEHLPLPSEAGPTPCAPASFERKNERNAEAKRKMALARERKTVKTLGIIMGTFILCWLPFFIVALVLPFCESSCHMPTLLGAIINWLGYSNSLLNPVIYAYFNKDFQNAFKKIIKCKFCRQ
Description: as §1, §2

M1 = target: M1; parameters: method as in PMID 24979399; conditions: M1 agonists; cited from earlier work
[6] = from IC50 by Cheng-Prusoff equation

T2 sequence (P28223 whole entry): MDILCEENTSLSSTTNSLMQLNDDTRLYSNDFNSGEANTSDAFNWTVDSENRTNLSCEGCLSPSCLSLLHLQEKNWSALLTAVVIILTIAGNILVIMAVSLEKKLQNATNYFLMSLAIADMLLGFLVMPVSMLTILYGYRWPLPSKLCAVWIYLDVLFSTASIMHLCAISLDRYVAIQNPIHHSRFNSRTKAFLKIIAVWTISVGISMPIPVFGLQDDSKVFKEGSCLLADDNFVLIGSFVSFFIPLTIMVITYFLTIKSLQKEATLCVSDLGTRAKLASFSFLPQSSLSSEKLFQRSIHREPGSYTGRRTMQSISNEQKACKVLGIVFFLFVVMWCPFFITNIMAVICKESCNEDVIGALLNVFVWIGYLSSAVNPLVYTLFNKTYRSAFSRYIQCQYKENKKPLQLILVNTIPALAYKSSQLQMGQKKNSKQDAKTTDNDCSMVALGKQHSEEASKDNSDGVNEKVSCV
T4 sequence (P21728 whole entry): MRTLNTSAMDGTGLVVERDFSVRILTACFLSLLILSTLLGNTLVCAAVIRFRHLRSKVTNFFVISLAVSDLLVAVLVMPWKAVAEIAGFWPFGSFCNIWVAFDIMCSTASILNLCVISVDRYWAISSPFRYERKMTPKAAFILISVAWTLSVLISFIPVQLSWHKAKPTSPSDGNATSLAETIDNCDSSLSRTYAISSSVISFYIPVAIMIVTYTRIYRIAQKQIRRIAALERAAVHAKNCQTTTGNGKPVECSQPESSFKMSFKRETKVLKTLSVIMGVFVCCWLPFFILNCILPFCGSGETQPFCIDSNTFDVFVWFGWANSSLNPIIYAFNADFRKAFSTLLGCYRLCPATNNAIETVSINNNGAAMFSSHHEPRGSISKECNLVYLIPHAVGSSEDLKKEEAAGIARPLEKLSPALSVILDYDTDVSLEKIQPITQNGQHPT
T1 sequence (P14416 1-414 isoform P14416-2): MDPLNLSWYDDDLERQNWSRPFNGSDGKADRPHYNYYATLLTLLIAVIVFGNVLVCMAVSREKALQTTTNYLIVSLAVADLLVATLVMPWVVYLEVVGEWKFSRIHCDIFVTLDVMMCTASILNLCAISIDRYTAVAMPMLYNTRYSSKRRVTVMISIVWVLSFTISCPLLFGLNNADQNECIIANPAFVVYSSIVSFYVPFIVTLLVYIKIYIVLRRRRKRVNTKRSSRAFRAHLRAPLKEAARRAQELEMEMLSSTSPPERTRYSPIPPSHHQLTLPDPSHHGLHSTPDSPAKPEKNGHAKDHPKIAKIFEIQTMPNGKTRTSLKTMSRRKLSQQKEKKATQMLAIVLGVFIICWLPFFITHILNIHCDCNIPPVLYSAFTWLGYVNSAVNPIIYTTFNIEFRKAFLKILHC

Compound | IC50 [1] [µM] | IC50 [2] [µM] | IC50 [3] [µM] | Ki [4, 6] [µM] | IC50 [4] [µM] | IC50 [5] [µM] | Ki (M1) [µM] | Ki [2, 6] [µM] | Ki [3, 6] [µM]
CC(C)=C[C@H]1C[C@](C)(O)[C@@H]2[C@H]3CC[C@@H]4[C@@]5(C)CC[C@H](O[C@@H]6OC[C@H](O)[C@H](O[C@@H]7O[C@H](CO)[C@@H](O)[C@H](O)[C@H]7O)[C@H]6O[C@@H]6O[C@@H](CO)[C@H](O)[C@H]6O)C(C)(C)[C@@H]5CC[C@@]4(C)[C@@]34CO[C@@]2(C4)O1 [Bacopaside X, bacopaside X] | > 100 | > 100 | > 100 | 9.06 | 19.5 ± 3.07 | > 100 | – | – | –
CC(=O)OCC[N+](C)(C)C [acetylcholine] | – | – | – | – | – | – | 59 | – | –
CC(C)=C[C@H]1C[C@](C)(O)[C@@H]2[C@H]3CC[C@@H]4[C@@]5(C)CC[C@H](O[C@@H]6O[C@H](CO)[C@@H](O)[C@H](O[C@@H]7O[C@H](CO)[C@@H](O)[C@H](O)[C@H]7O)[C@H]6O[C@@H]6O[C@@H](CO)[C@H](O)[C@H]6O)C(C)(C)[C@@H]5CC[C@@]4(C)[C@@]34CO[C@@]2(C4)O1 [Bacoside A3, bacoside A3] | > 100 | > 100 | > 100 | – | > 100 | > 100 | – | – | –
CC(C)=CC=CC(C)=CC1CCC2C3(C)CCC(O)C(C)(C)C3CCC2(C)C12COC(=O)C2 (stereo not shown) [Ebelin Lactone, ebelin lactone] | > 30 | 14.5 ± 4.98 | 0.8 ± 0.19 | – | > 30 | > 30 | – | 4.21 | 0.45
CC(C)=C[C@@H]1CO[C@]23C[C@]4(CO2)[C@H](CC[C@@H]2[C@@]5(C)CC[C@H](O[C@@H]6OC[C@H](O)[C@H](O[C@@H]7O[C@H](CO)[C@@H](O)[C@H](O)[C@H]7O)[C@H]6O[C@@H]6O[C@@H](CO)[C@H](O)[C@H]6O)C(C)(C)[C@@H]5CC[C@]24C)[C@H]3[C@@]1(C)O [Bacopasaponin C, bacopasaponin C] | > 100 | > 100 | > 100 | – | > 100 | > 100 | – | – | –
CC(C)=CC1COC23CC4(CO2)C(CCC2C5(C)CCC(OC6OC(CO)C(O)C(OC7OC(CO)C(O)C(O)C7O)C6OC6OC(CO)C(O)C6O)C(C)(C)C5CCC24C)C3C1(C)O (stereo not shown) [Bacopaside II, bacopaside II] | > 30 | > 30 | > 30 | – | > 30 | > 30 | – | – | –
CC(C)=CC1CC(C)(O)C2C3CCC4C5(C)CCC(O)C(C)(C)C5CCC4(C)C34COC2(C4)O1 (stereo not shown) [Jujubogenin, jujubogenin] | > 30 | > 30 | > 30 | – | > 30 | > 30 | – | – | –
